Measurements as given in US11458142B2, “Compositions and methods for ameliorating pain” (The Board of Supervisors of Louisiana State University and …, priority 2017, dated 2022).
Where “and” joins values, the source holds several entries; their conditions need not be identical. Identical values can stand only once.

Experiments:
CD1 male mice [1] = assay: Acetic acid-induced abdominal writhing assay; format: in vivo, mouse; settings: for No. of writhes counted within a 10 min time interval, 25 min post drug administration, beginning 5 min after acetic acid injection: 75 mg/Kg body weight p.o., single animals, n = 7 (raw data for FIG. 1A); for number of writhes induced by injection of acetic acid: mean, vehicle only 42.3+/−7.2
Method: Two different assays were utilized to quantify the analgesic effects of the compounds. All tests were performed on CD1 male mice. […] In some embodiments, the vehicle can comprise Agent K, 0.2%, Bio-serve, or Labrafil 1944 (Gottefosee, France). Compound or vehicle was administered orally by lavage under brief halothane anesthesia to animals fasted overnight.
Acetic acid-induced abdominal writhing assay. Contraction of the abdominal muscle and stretching of the hind limbs is induced as a response to intraperitoneal (ip) injection of an acetic acid solution, as described Hendershot and Forsaith, 1959. In this model of visceral pain, abdominal contractions (writhing) is induced in mice by an ip injection of 0.4% acetic acid at a dose of 10 mL/Kg, 25 min after drug administration. The number of writhes is counted for 10 min beginning 5 min after acetic acid injection. […] Data is expressed as mean±SEM, n=7.

CD1 male mice [2] = assay: Tail-flick assay; format: in vivo, mouse; settings: 600 mg/Kg per os, 30 minutes post injection; versus ApAP
Method: Two different assays were utilized to quantify the analgesic effects of the compounds. All tests were performed on CD1 male mice. […] In some embodiments, the vehicle can comprise Agent K, 0.2%, Bio-serve, or Labrafil 1944 (Gottefosee, France). Compound or vehicle was administered orally by lavage under brief halothane anesthesia to animals fasted overnight. Tail-flick assay. Analgesic effect of drugs was determined by using the reaction time (latency) of mice to thermal stimulation of the tail tip. All animals (CD1 male mice) were fasted overnight (15 hours) and, their baseline tail flick latency (seconds) was recorded using an IITC Tail Flick Analgesia Meter. The tail of each mouse was exposed to a focused beam of light and the latency to remove the tail from the path of the stimulus were recorded electronically using a photoelectric cell of the IITC Tail Flick Analgesia Meter. The stimulus intensity was adjusted to produce baseline latencies of 3-6 seconds. […] At 30 minutes post injection, tail flick latency was recorded again to determine total change in latency. […] Data expressed as mean±SEM, n=10.

mouse = assay: LPS-induced fever mouse model; format: in vivo; settings: versus ApAP, 2 h, 8 h and 10 h
HepaRG and hHEPs [3] = assay: LDH cytotoxicity assay in hepatocytes; format: cell-based, human; settings: 500 μM and 1000 μM; time and dose-dependent
Method: (§1) HepaRG cells procured from Thermo Fisher Scientific (Invitrogen) are terminally differentiated hepatic cells, which are derived from a hepatic progenitor cell line that retains many characteristics of primary human hepatocytes. […] LDH assay. Using the Pierce LDH Cytotoxicity assay kit from Thermo Scientific, cells were incubated in presence of various drug compounds, followed by collection of the medium supernatant. Release of LDH was measured in 96 well plate formats. The absorbance was measured at 490 nm and 680 nm and the final result was absorbance observed at 680 nm subtracted from absorbance observed at 490 nm (A490 nm-[…] nm). GSH assay. Using the ThiolTracker Violet Glutathione Detection reagent from Molecular Probes (Invitrogen), after hepatocytes were incubated in the presence of various compounds, incubation medium was removed, cells rinsed with D-PBS conditioned medium followed by incubation with pre-warmed ThiolTracker Violet dye (working solution prepared as per manufacturer's instructions) for 30 minutes. Fluorescence was measured at the following wavelengths: excitation (404 nm) and emission (526 nm). The finalized result was expressed as relative fluorescence units (RFU), which indicates the cellular level of reduced glutathione (GSH) in intact cells.

HepaRG and hHEPs [4] = assay: GSH assay (ThiolTracker Violet) in hepatocytes; format: cell-based, human; settings: 500 μM and 1000 μM; time and dose-dependent
Method: as §1

CYP2E1 = target: T1, CYP2E1 (Homo sapiens, UniProt P05181); assay: VIVID CYP450 screening assay, CYP2E1; format: in vitro ADME; settings: probe CYP enzyme specific fluorogenic substrate (not named)
T1 construct: purchased Life Technologies, Invitrogen/Thermo Fisher Scientific; host or cells: insect cells (microsomes)
T1 sequence (P05181 whole entry): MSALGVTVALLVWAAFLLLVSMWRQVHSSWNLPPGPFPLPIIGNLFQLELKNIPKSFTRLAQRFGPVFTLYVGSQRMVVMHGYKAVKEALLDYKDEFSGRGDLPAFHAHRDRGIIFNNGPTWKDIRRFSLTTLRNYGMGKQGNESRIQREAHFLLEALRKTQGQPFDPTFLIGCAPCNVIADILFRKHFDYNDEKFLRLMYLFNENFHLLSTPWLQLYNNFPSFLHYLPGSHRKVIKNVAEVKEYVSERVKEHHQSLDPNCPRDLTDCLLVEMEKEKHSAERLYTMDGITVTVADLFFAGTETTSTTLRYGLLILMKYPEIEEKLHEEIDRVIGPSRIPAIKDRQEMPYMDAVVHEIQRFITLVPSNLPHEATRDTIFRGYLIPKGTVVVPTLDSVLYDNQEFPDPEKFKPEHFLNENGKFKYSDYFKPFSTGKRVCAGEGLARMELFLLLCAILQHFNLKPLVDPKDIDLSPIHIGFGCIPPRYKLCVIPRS
Method: (§2) The […]450 screening assay kit (Life Technologies, Invitrogen/Thermo Fisher Scientific) was used as an in vitro high throughput screening. Here, each compound was mixed with a master pre-mix comprising of CYP450 BACULOSOMES (which are microsomes prepared from insect cells expressing a specific human P450 isoenzyme), reagent and regeneration system, which contained glucose-6-phosphate and glucose-6-phosphate dehydrogenase. The mixture was pre-incubated at room temperature for 20 minutes. Following this, each CYP enzyme specific substrate and NADP^+ were added and the mixture incubated at room temperature for 30 minutes. The reaction was stopped by addition of 0.5 M Tris base. CYP activity was evaluated by measuring the fluorescence of the fluorescent metabolite generated from each CYP enzyme specific substrate.

CYP3A4 = target: T2, CYP3A4 (Homo sapiens, UniProt P08684); assay: VIVID CYP450 screening assay, CYP3A4; format: in vitro ADME; settings: probe CYP enzyme specific fluorogenic substrate (not named)
T2 construct: purchased Life Technologies, Invitrogen/Thermo Fisher Scientific; host or cells: insect cells (microsomes)
T2 sequence (P08684 whole entry): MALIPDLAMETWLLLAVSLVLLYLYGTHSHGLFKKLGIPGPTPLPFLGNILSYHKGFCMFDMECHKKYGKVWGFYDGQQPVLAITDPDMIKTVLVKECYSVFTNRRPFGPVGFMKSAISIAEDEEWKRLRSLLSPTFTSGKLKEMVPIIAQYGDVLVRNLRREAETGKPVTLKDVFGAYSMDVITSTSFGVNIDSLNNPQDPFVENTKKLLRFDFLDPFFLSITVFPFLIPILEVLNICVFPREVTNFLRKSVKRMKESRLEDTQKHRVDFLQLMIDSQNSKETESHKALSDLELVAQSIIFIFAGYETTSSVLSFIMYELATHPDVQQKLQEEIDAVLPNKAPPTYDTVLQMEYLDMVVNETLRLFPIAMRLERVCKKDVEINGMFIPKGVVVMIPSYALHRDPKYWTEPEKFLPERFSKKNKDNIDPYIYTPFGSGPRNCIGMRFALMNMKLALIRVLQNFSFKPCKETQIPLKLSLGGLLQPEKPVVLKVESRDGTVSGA
Method: as §2

CYP2D6 = target: T3, CYP2D6 (Homo sapiens, UniProt P10635); assay: VIVID CYP450 screening assay, CYP2D6; format: in vitro ADME
T3 construct: purchased Life Technologies, Invitrogen/Thermo Fisher Scientific; host or cells: insect cells (microsomes)
T3 sequence (P10635 whole entry): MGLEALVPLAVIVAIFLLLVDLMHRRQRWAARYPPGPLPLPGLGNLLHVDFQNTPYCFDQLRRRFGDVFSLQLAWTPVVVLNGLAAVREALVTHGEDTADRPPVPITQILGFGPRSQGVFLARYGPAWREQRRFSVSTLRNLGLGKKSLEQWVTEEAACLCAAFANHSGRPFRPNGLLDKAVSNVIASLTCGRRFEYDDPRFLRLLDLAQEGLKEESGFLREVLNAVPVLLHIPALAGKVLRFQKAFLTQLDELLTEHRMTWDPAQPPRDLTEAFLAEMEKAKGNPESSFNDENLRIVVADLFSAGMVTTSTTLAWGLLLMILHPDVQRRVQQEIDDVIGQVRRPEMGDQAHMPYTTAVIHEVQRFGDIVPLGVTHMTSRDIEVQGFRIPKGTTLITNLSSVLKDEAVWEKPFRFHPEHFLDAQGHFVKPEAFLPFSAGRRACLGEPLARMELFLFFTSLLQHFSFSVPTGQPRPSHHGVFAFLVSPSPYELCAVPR
Method: as §2

CD1 male mice [5] = assay: Liver function assays (ALT, AST, ALP) in serum; format: in vivo, mouse; settings: 600 mg/kg PO
CD1 male mice [6] = assay: Blood creatinine functional assay; format: in vivo, mouse; settings: 600 mg/Kg PO, serum

CCN(CC)C(=O)c1ccccc1S(=O)(=O)NCC(=O)Nc1ccc(O)cc1 [SRP6d, 2-<[(4-Hydroxy-phenylcarbamoyl)-methyl]-sulfamoyl>-N,N-diethyl-benzamide]
No. of writhes counted within a 10 min time interval, 25 min post drug administration, beginning 5 min after acetic acid injection (CD1 male mice [1]): 15 (3×) and 11 and 14 and 20 and 18
number of writhes induced by injection of acetic acid (CD1 male mice [1]): 15.7+/−1.2
analgesia in tail flick test (latency) (CD1 male mice [2]): comparable significant analgesia
antipyresis (temperature curves) (mouse): comparable antipyresis to ApAP
lactate dehydrogenase (LDH) release (HepaRG and hHEPs [3]): consistently decreased
amount of reduced glutathione (GSH) (HepaRG and hHEPs [4]): increased
inhibition at 30 min (CYP2E1): ~25%
inhibition at 30 min (CYP3A4): ~25%
inhibitory effect for CYP2D6 (CYP2D6): marginal inhibitory effect

O=C(CNS(=O)(=O)c1ccccc1C(=O)NC1CCCC1)Nc1ccc(O)cc1 [SRP6o]
No. of writhes counted within a 10 min time interval, 25 min post drug administration, beginning 5 min after acetic acid injection (CD1 male mice [1]): 11 and 14 and 16 and 17 (2×) and 18 and 24

CC(=O)Nc1ccc(O)cc1 [ApAP, N-acetyl-para-aminophenol, reference compound]
No. of writhes counted within a 10 min time interval, 25 min post drug administration, beginning 5 min after acetic acid injection (CD1 male mice [1]): 11 and 12 and 14 and 15 and 16 (3×)
ALT, AST and AP enzyme activity (liver function tests) (CD1 male mice [5]): Increased levels
blood creatinine levels (CD1 male mice [6]): increased levels of creatinine

CC(C)CNC(=O)c1ccccc1S(=O)(=O)NCC(=O)Nc1ccc(O)cc1 [SRP6p]
No. of writhes counted within a 10 min time interval, 25 min post drug administration, beginning 5 min after acetic acid injection (CD1 male mice [1]): 14 (2×) and 17 and 24 and 26 and 29 and 30

O=C(CNS(=O)(=O)c1ccccc1C(=O)NCCc1cccc(O)c1O)Nc1ccc(O)cc1 [SRP6r]
No. of writhes counted within a 10 min time interval, 25 min post drug administration, beginning 5 min after acetic acid injection (CD1 male mice [1]): 9 and 12 and 18 and 20 and 25 and 26 (2×)
number of writhes induced by injection of acetic acid (CD1 male mice [1]): 9.5+/−4
analgesia in tail flick test (latency) (CD1 male mice [2]): comparable significant analgesia
antipyresis (temperature curves) (mouse): comparable antipyresis to ApAP
lactate dehydrogenase (LDH) release (HepaRG and hHEPs [3]): consistently decreased
amount of reduced glutathione (GSH) (HepaRG and hHEPs [4]): increased
inhibition at 30 min (CYP2E1): ~25%
inhibition at 30 min (CYP3A4): ~25%
inhibitory effect for CYP2D6 (CYP2D6): marginal inhibitory effect
melting point: 87 to 89 °C

CCCCNC(=O)c1ccccc1S(=O)(=O)NCC(=O)Nc1ccc(O)cc1 [SRP6i]
No. of writhes counted within a 10 min time interval, 25 min post drug administration, beginning 5 min after acetic acid injection (CD1 male mice [1]): 7 and 12 and 16 and 17 and 22 and 27 and 33

COc1ccc(CNC(=O)c2ccccc2S(=O)(=O)NCC(=O)Nc2ccc(O)cc2)cc1 [SRP6j]
No. of writhes counted within a 10 min time interval, 25 min post drug administration, beginning 5 min after acetic acid injection (CD1 male mice [1]): 10 and 14 and 16 and 17 and 18 (2×) and 19
